Results as given in US12338261B2 (SUMITOMO PHARMA ONCOLOGY, INC., priority 2015, dated 2025).
Values joined by “and” are separate entries in the source; they are usually repeats but may differ in a detail not shown here. Identical values can stand only once. Like-named read-outs stand apart in the source and are kept apart here.

How the values were obtained:
[1] = assay type: in vitro ADME, rat; details: rat, plasma
Procedure: (§1) The plasma stability of compound IB′ was determined using plasma from four species. Results for mouse, rat, dog and human are shown in Tables 5, 6, 7 and 8 respectively. Alvocidib and flumazenil were used as controls. In mouse, rat and human plasma, compound IB′ maintained 100% stability after 5 hour incubation. In dog plasma, approximately 90% of compound IB′ remained after 5 hours.

[2] = assay type: in vitro ADME, mouse; details: mouse, plasma
Procedure: as §1

[3] = system: MV4-11 mouse xenograft model of acute myeloid leukemia (AML); test: Mouse xenograft efficacy study; assay type: in vivo; details: MV4-11 xenograft
Procedure: The in vivo activity of compound IB′ was determined in a MV4-11 mouse xenograft model of acute myeloid leukemia (AML). Injection of 8×10^6 MV4-11 cells/mouse was followed by growth of tumors to approximately 100 mm^3. After tumors reached the appropriate size, mice were randomized into the following treatment groups: Vehicle, compound IB′ (7.5 mg/kg, qdx5x3), compound IB′ (2.5 mg/kg, qdx5x3), compound IB′ (0.1 mg/kg, qdx5x3) and […]. Vehicle and compound IB′ were administered orally, except in the last arm of compound IB′ (7.5 mg/kg, q7dx3), which was dosed intravenously.

Human plasma stability = assay type: in vitro ADME; details: human plasma
Procedure: The plasma stability of compound IB′ was determined using plasma from four species.

[4] = CD-1, mouse, in vivo
Dog plasma stability = assay type: in vitro ADME; details: dog plasma
Procedure: as §1

MCL-1 protein expression = test: Mouse xenograft pharmacodynamic study; assay type: in vivo; details: MV4-11 xenograft tumors, 48 hours post-treatment
Procedure: The in vivo pharmacodynamic activity of compound IB′ was determined in a MV4-11 mouse xenograft model of AML (FIG. 6A-B). Injection of 8×10^6 cells/mouse was followed by growth of tumors to approximately 100 mm^3. After tumors reached an appropriate size, mice were randomized into the following treatment groups: Vehicle, compound IB′ (2.5 mg/kg), compound IB′ (0.5 mg/kg), compound IB′ (0.1 mg/kg), compound IB′ (0.02 mg/kg). Mice were administered a single treatment dose and tumors were harvested 48 hours post-treatment. MCL-1 protein levels were assessed on harvested tumors using standard polyacrylamide gel electrophoresis and immunoblotting technique (FIG. 6A).

physchem = details: kinetic from dmso stock
[5] = Maximum tolerated acute dose in rats
Procedure: Acute (i.e. single dose) toxicology studies were performed in rats. Acute studies were performed in female Sprague Dawley rats using three animals per treatment group. […] Body weight measurements following oral dosing (see FIG. 4A), along with mortality, clinical observations, food consumption (see FIG. 4B), and complete blood counts (CBCs; see Table 12) were used to determine the maximum tolerated acute dose (MTDacute).

[6] = for MTDacute: female SHO SCID mice; for Body weight loss, peak: surviving mice
Procedure: Acute studies were performed in female SHO SCID mice using three animals per treatment group. […] Body weight measurements following oral dosing (FIGS. 2A-B) and intravenous (IV) dosing (FIG. 2C-D) were used, along with mortality and clinical observations to determine the maximum tolerated acute dose (MTDacute).

[7] = Procedure: Repeat dose toxicology studies were performed in female SHO SCID mice using 3 animals per treatment group. […] Body weight measurements of animals treated by oral (see FIGS. 3A-B) and intravenous (see FIG. 3C-D) dosing over the course of the 5-day repeat dosing period and subsequent 5-day observation period, along with mortality and clinical observations, were used to determine the maximum tolerated dosing schedule (MTDrepeat).
[8] = rats, single oral dose 4.5 mg/kg
[9] = rats, single oral dose 18 mg/kg

## CN1CC[C@H](c2c(OP(=O)(O)O)cc(O)c3c(=O)cc(-c4ccccc4Cl)oc23)[C@H](O)C1 [Compound IB′, 2-(2-chlorophenyl)-5-hydroxy-8-(3-hydroxy-1-methylpiperidin-4-yl)-4-oxo-4H-chromen-7-yl dihydrogen phosphate]
[1]; 0 h
  % Remaining: 100.00%
[1]; 0.5 h
  % Remaining: 97.39%
[1]; 1 h
  % Remaining: 94.60%
[1]; 2 h
  % Remaining: 100.04%
[1]; 3 h
  % Remaining: 107.48%
[1]; 4 h
  % Remaining: 100.20%
[2]; 0 h
  % Remaining: 100.00%
[2]; 0.5 h
  % Remaining: 88.48%
[2]; 1 h
  % Remaining: 89.83%
[2]; 2 h
  % Remaining: 97.71%
[2]; 3 h
  % Remaining: 99.61%
[2]; 4 h
  % Remaining: 100.46%
[3]; 2.5 mg/kg, qdx5x3, orally
  Tumor Growth Inhibition: 12%
[3]; 7.5 mg/kg, q7dx3, intravenously
  Tumor Growth Inhibition: 74%
[3]; 7.5 mg/kg, qdx5x3, orally
  Tumor Growth Inhibition: 69%
Human plasma stability; 0 hours
  % Remaining: 100.00%
Human plasma stability; 0.5 hours
  % Remaining: 96.32%
Human plasma stability; 1 hour
  % Remaining: 88.01%
Human plasma stability; 2 hours
  % Remaining: 104.22%
Human plasma stability; 3 hours
  % Remaining: 102.59%
Human plasma stability; 4 hours
  % Remaining: 94.36%
Human plasma stability; 5 hours
  % Remaining: 100% and 100.26%
[4]
  Bioavail.: 182.3 ± 20.0 % F
Dog plasma stability; 0 hours
  % Remaining: 100.00%
Dog plasma stability; 0.5 hours
  % Remaining: 83.66%
Dog plasma stability; 1 hour
  % Remaining: 94.53%
Dog plasma stability; 2 hours
  % Remaining: 112.61%
Dog plasma stability; 3 hours
  % Remaining: 99.16%
Dog plasma stability; 4 hours
  % Remaining: 93.91%
MCL-1 protein expression; single dose 0.02 mg/kg
  Reduction of MCL-1 Expression: 0.0%
MCL-1 protein expression; single dose 0.1 mg/kg
  Reduction of MCL-1 Expression: 46%
MCL-1 protein expression; single dose 0.5 mg/kg
  Reduction of MCL-1 Expression: 61%
MCL-1 protein expression; single dose 2.5 mg/kg
  Reduction of MCL-1 Expression: 54%
physchem; pH 2.2, aqueous buffer
  solubility kinetic: > 1000 µg/mL
physchem; pH 2.2, aqueous buffer, Solubility
  solubility: 1900 µg/mL
physchem; pH 6.8, aqueous buffer
  solubility kinetic: > 5000 µg/mL
physchem; pH 8.7, aqueous buffer
  solubility kinetic: > 5000 µg/mL
[5]; female Sprague Dawley rats, single oral dose
  MTDacute: 18 mg/kg
[5]; female, Sprague Dawley, rat, in vivo, po
  NOAEL: 18 mg/kg
[5]; [8]
  HCT: 49.9%
  MCH: 19.7 pg
  MCHC: 35.9 g/dL
  MCV: 54.8 fL
  PLT: 37.1 10^3/μL
  RBC: 9.1 10^6/μL
  RDWA: 16.2 fL
  WBC: 17.9 10^3/μL
[5]; rats, single oral dose 9 mg/kg
  HCT: 42.7%
  MCH: 19.5 pg
  MCHC: 36.6 g/dL
  MCV: 53.3 fL
  PLT: 35.0 10^3/μL
  RBC: 8.0 10^6/μL
  RDWA: 15.9 fL
  WBC: 15.6 10^3/μL
  platelet counts versus normal range: outside the normal range
[5]; [9]
  HCT: 31.2%
  MCH: 19.6 pg
  MCHC: 36.6 g/dL
  MCV: 53.5 fL
  PLT: 33.9 10^3/μL
  RBC: 5.9 10^6/μL
  RDWA: 15.7 fL
  WBC: 11.4 10^3/μL
  abnormal food consumption patterns: not observed
  red and white blood cell counts: Slightly reduced
[5]; rats, single oral dose 36 mg/kg, preceding death
  Body weight loss: 13.1%
[5]; rats, single oral dose 18, 9, or 4.5 mg/kg
  overt toxicity: No overt toxicity, including body weight change or diarrhea, was observed
[6]; single dose, dosed intravenously
  MTDacute: 15 mg/kg
[6]; single dose, dosed orally
  MTDacute: 15 mg/kg
[6]; mice, 15 mg/kg intravenous dosing group, single dose
  Minor body weight loss, peak: 3.3%
[6]; mice, single dose 30 mg/kg and 45 mg/kg
  clinical observations: Body weight loss and increased lethargy were observed
[6]; mice, single dose orally or intravenously at 15 mg/kg or 7.5 mg/kg
  overt toxicity: No overt toxicity was observed
[6]; mice, single intravenous dose 30 mg/kg
  mortality: one animal died on day three
[6]; mice, single intravenous dose 45 mg/kg
  mortality: two animals died on day two
[6]; mice, single oral dose 30 mg/kg
  mortality: one animal died on day four
[6]; mice, single oral dose 45 mg/kg
  mortality: one animal died on day two and one animal died on day three
[6]; single dose intravenously
  Body weight loss, peak: 12%
[6]; single oral dose, 30 mg/kg group
  Body weight loss, peak: 17%
[7]; female SHO SCID mice, five daily doses, dosed intravenously
  MTDrepeat: 15 mg/kg
[7]; mice, five daily doses, orally 7.5 or 2.5 mg/kg, or any dose level intravenously
  overt toxicity: No overt toxicity was observed
[7]; mice, five daily oral doses 15 mg/kg
  mortality: one animal died on day 5, and one animal died on day 7
[7]; surviving mice, five daily oral doses 15 mg/kg
  Body weight loss, peak: 12%
